Test results taken from PMC1968247 (British Journal of Cancer, 1993).
Several values for one entry are separate records, joined by “and”; a condition that tells them apart may be missing. Equal values may be shown once. Read-outs that look alike come from different tables or passages of the source.

What was measured:
[1] = In vitro stability in complete RPMI 1640 tissue culture medium; type: in vitro ADME; conditions: complete RPMI 1640 medium, 37 C, initial 10 ug/ml
Experimental: (§1) Br. J. Cancer (1993), 67, 441 446 t? […] Bibby Clinical Oncology Unit, University of Bradford, West Yorkshire, BD7 JDP, UK. […] In vivo anti-tumour activity was examined against three transplantable adenocarcinomas of the mouse colon and in vivo bone marrow toxicity was assessed using a spleen colony forming unit assay. The pharmacokinetic behaviour of the drug in vivo and drug stability in vitro was analysed by gas chromatography with electron capture detection. […] Clinical responses to cytotoxic agents have been largely restricted to the haematological malignancies while the majority of human solid tumours have remained refractory to chemotherapy (Marsoni et al., 1987). […] However, their clinical usefulness has been limited by non-selective host toxicity, particularly myelosuppres- sion. […] The assessment of stem cell survival has been recommended to study irreversible cytotoxic bone marrow injury (Schofield, 1986) and this can be performed readily in mice using a spleen colony forming unit assay. […] In vitro activity was assessed against a panel of established murine and human tumour cell lines while in vivo anti-tumour responses were evaluated against an ascitic tumour, MAC 15A, and two solid subcutaneous (sc) tumours, MAC 13 and MAC 26. […] Chemosensitivity testing In vitro chemosensitivity was assessed using a modified micro-tetrazolium (MTT) assay (Twenty- man & Luscombe, 1987).

MAC 13 tumours = experiment: Anti-tumour activity against MAC 13 (tumour weight); type: in vivo, NMRI mice
Experimental: (§2) Br. J. Cancer (1993), 67, 441 446 t? […] Bibby Clinical Oncology Unit, University of Bradford, West Yorkshire, BD7 JDP, UK. […] In vivo anti-tumour activity was examined against three transplantable adenocarcinomas of the mouse colon and in vivo bone marrow toxicity was assessed using a spleen colony forming unit assay. The pharmacokinetic behaviour of the drug in vivo and drug stability in vitro was analysed by gas chromatography with electron capture detection. […] Clinical responses to cytotoxic agents have been largely restricted to the haematological malignancies while the majority of human solid tumours have remained refractory to chemotherapy (Marsoni et al., 1987). […] However, their clinical usefulness has been limited by non-selective host toxicity, particularly myelosuppres- sion. The chloroethylnitrosoureas decompose spontaneously in aqueous solution to generate reactive intermediates that are capable of alkylating and carbamoylating nucleophilic targets (Cheng et al., 1972). Alkylation reactions consist of chloroethylations and hydroxyethylations of DNA (Tong et al., 1982). Chloroethylation of 06-guanine with subsequent cross-link formation is considered to be the most important cytotoxic reaction (Lown et al., 1978) while hydroxyethyla- tion reactions are thought to be responsible for their mutagenic and carcinogenic effects (Pelfrene et al., 1976; Swenson et al., 1979). […] In the search for other types of compound that would chloroethylate DNA, a series of 2-haloethylsulphonates was synthesised (Shealy et al., 1983). […] Recently, the NCI has introduced a new disease-orientated screening programme based on the assessment of the in vitro cytotoxicity of a panel of cell lines representing the common clinical forms of human cancers using a colorimetric assay (Boyd, 1989). […] One reason for this discrepancy is that the in vitro tests ignore the potential role played by the pharmacokinetic behaviour and bioavailability of a drug in determining tumour responses in vivo. […] It has been used extensively as part of the pre-clinical evaluation of new anti-cancer agents within the Screening and Pharmacology Group of the EORTC (Bibby et al., 1988b). The feasibility of performing minimal toxicity studies in conjunction with anti-tumour studies has been described (Bibby et al., 1988b). […] Correspondence: A.M. Matthew. Received 6 December 1991; and in revised form 13 October 1992. Br. J. Cancer (1993), 67, 441-446 '?" Macmillan Press Ltd., 1993 442 A.M. MATIHEW et al. ethylating agents with improved therapeutic indices. The assessment of stem cell survival has been recommended to study irreversible cytotoxic bone marrow injury (Schofield, 1986) and this can be performed readily in mice using a spleen colony forming unit assay. […] In vitro activity was assessed against a panel of established murine and human tumour cell lines while in vivo anti-tumour responses were evaluated against an ascitic tumour, MAC 15A, and two solid subcutaneous (sc) tumours, MAC 13 and MAC 26. MAC 13 is relatively nitrosourea-sensitive due to a low level of the repair enzyme 06-alkylguanine-DNA alkyltransferase while MAC 26 is relatively nitrosourea-resistant due to a high repair enzyme level (Lunn et al., 1989). In vivo bone marrow toxicity and pharmacokinetic studies and in vitro drug stability studies were performed in conjunction with the anti-tumour studies. […] Chlorozotocin was dissolved in 10% dimethylsulphoxide (DMSO)/arachis oil. Drug solutions were prepared at an appropriate concentration for the desired in vivo dose to be administered in 0.1 ml per 10 g body weight by intra- peritoneal (ip) or intravenous (iv) injection and for the desired final concentration in vitro to be achieved upon a 1 in 10 dilution. […] Chemosensitivity testing In vitro chemosensitivity was assessed using a modified micro-tetrazolium (MTT) assay (Twenty- man & Luscombe, 1987).

[2] = Maximum tolerated dose, full dose range to the point of toxicity; conditions: ip, mice
Experimental: as §1, with “sion. The chloroethylnitrosoureas decompose spontaneously in aqueous solution to generate reactive intermediates that are capable of alkylating and carbamoylating nucleophilic targets (Cheng et al., 1972). Alkylation reactions consist of chloroethylations and hydroxyethylations of DNA (Tong et al., 1982). Chloroethylation of 06-guanine with subsequent cross-link formation is considered to be the most important cytotoxic reaction (Lown et al., 1978) while hydroxyethyla- tion reactions are thought to be responsible for their mutagenic and carcinogenic effects (Pelfrene et al., 1976; Swenson et al., 1979).” for “sion.”

[3] = Pharmacokinetic study, plasma Clomesone by gas chromatography; conditions: 50 mg kg-1 ip
Experimental: as §2

[4] = parameters: method as in Chan & Barrientos, 1988; conditions: previously reported; ref Chan & Barrientos, 1988; cited from earlier work
MAC 26 tumours = conditions: for Tumour growth delay: MAC 26; for Survivors: MAC 26 bearers
Experimental: as §2

bone marrow = conditions: for Survival fraction: 24 h
Experimental: as §2

HCT-18 = experiment: In vitro chemosensitivity, MTT assay; type: cell-based, human
Experimental: as §2

DLD-1 = experiment: In vitro chemosensitivity, MTT assay; type: cell-based, human
Experimental: as §2

K562 = experiment: In vitro chemosensitivity, MTT assay; type: cell-based, human; conditions: area under decay curve of the IC50 over the MTT assay
Experimental: as §2

HCLO = experiment: In vitro chemosensitivity, MTT assay; type: cell-based, human; conditions: area under decay curve of the IC50 over the MTT assay
Experimental: as §2

HRT-18 = experiment: In vitro chemosensitivity, MTT assay; type: cell-based, human
Experimental: as §2

HT-29 = experiment: In vitro chemosensitivity, MTT assay; type: cell-based, human
Experimental: as §2

MAC 26 = experiment: In vitro chemosensitivity, MTT assay; type: cell-based, murine
Experimental: (§3) Br. J. Cancer (1993), 67, 441 446 t? […] Bibby Clinical Oncology Unit, University of Bradford, West Yorkshire, BD7 JDP, UK. […] In vivo anti-tumour activity was examined against three transplantable adenocarcinomas of the mouse colon and in vivo bone marrow toxicity was assessed using a spleen colony forming unit assay. The pharmacokinetic behaviour of the drug in vivo and drug stability in vitro was analysed by gas chromatography with electron capture detection. […] Clinical responses to cytotoxic agents have been largely restricted to the haematological malignancies while the majority of human solid tumours have remained refractory to chemotherapy (Marsoni et al., 1987). […] However, their clinical usefulness has been limited by non-selective host toxicity, particularly myelosuppres- sion. The chloroethylnitrosoureas decompose spontaneously in aqueous solution to generate reactive intermediates that are capable of alkylating and carbamoylating nucleophilic targets (Cheng et al., 1972). Alkylation reactions consist of chloroethylations and hydroxyethylations of DNA (Tong et al., 1982). Chloroethylation of 06-guanine with subsequent cross-link formation is considered to be the most important cytotoxic reaction (Lown et al., 1978) while hydroxyethyla- tion reactions are thought to be responsible for their mutagenic and carcinogenic effects (Pelfrene et al., 1976; Swenson et al., 1979). […] In the search for other types of compound that would chloroethylate DNA, a series of 2-haloethylsulphonates was synthesised (Shealy et al., 1983). […] Recently, the NCI has introduced a new disease-orientated screening programme based on the assessment of the in vitro cytotoxicity of a panel of cell lines representing the common clinical forms of human cancers using a colorimetric assay (Boyd, 1989). […] One reason for this discrepancy is that the in vitro tests ignore the potential role played by the pharmacokinetic behaviour and bioavailability of a drug in determining tumour responses in vivo. […] It has been used extensively as part of the pre-clinical evaluation of new anti-cancer agents within the Screening and Pharmacology Group of the EORTC (Bibby et al., 1988b). The feasibility of performing minimal toxicity studies in conjunction with anti-tumour studies has been described (Bibby et al., 1988b). […] Correspondence: A.M. Matthew. Received 6 December 1991; and in revised form 13 October 1992. Br. J. Cancer (1993), 67, 441-446 '?" Macmillan Press Ltd., 1993 442 A.M. MATIHEW et al. ethylating agents with improved therapeutic indices. The assessment of stem cell survival has been recommended to study irreversible cytotoxic bone marrow injury (Schofield, 1986) and this can be performed readily in mice using a spleen colony forming unit assay. […] In vitro activity was assessed against a panel of established murine and human tumour cell lines while in vivo anti-tumour responses were evaluated against an ascitic tumour, MAC 15A, and two solid subcutaneous (sc) tumours, MAC 13 and MAC 26. MAC 13 is relatively nitrosourea-sensitive due to a low level of the repair enzyme 06-alkylguanine-DNA alkyltransferase while MAC 26 is relatively nitrosourea-resistant due to a high repair enzyme level (Lunn et al., 1989). […] Chemosensitivity testing In vitro chemosensitivity was assessed using a modified micro-tetrazolium (MTT) assay (Twenty- man & Luscombe, 1987).

WEHI-3B = experiment: In vitro chemosensitivity, MTT assay; type: cell-based, murine; conditions: area under decay curve of the IC50 over the MTT assay
Experimental: as §3

MAC 16 = experiment: In vitro chemosensitivity, MTT assay; type: cell-based, murine; conditions: area under decay curve of the IC50 over the MTT assay
Experimental: as §3

MAC 15A = experiment: In vitro chemosensitivity, MTT assay; type: cell-based, murine; conditions: area under decay curve of the IC50 over the MTT assay
Experimental: as §3

P388 leukaemia = system: P388 leukaemia; parameters: method as in Shealy et al., 1984; conditions: ref Shealy et al., 1984; cited from earlier work
MAC 15A ascites tumour = experiment: Anti-tumour activity against MAC 15A (median survival time); type: in vivo, NMRI mice
Experimental: as §2

[5] = area under decay curve of the IC50 over the MTT assay

CS(=O)(=O)CS(=O)(=O)OCCCl [Clomesone, 2-chloroethyl(methylsulphonyl)methanesulphonate]
1st order rate constant (k) of degradation [1]: 0.205 | t1/2 in tissue culture medium [1]: 203 min | % Tumour weight inhibition (MAC 13 tumours; 12.5 mg kg-1 ip): 21.6% | % Tumour weight inhibition (MAC 13 tumours; 12.5 mg kg-1 iv): 45.9% | % Tumour weight inhibition (MAC 13 tumours; 25 mg kg-1 ip): 13.5% | % Tumour weight inhibition (MAC 13 tumours; 25 mg kg-1 iv): 21.6% | % Tumour weight inhibition (MAC 13 tumours; 50 mg kg-1 iv): 47.3% | % Tumour weight inhibition (MAC 13 tumours; 100 mg kg-1 ip, assessed 17 days later): 48.3% | Maximum tolerated dose [2]: 100 mg kg-' | Time to peak plasma levels [3]: ≤ 2 min | area under the plasma concentration versus time curve, mean value [3]: 6.77 .ghmlh' | areas under the plasma concentration versus time curves, range [3]: 5.70-8.04 lagh ml-' | Peak plasma levels, mean value ([3]; female non-tumour bearing mice, three experiments): 28.0 ggmlh' | mean terminal half-life ([3]; plasma): 8.1 min | terminal half-life, range ([3]; plasma): 4.8 to 10.8 min | Peak plasma levels, range ([3]; three experiments): 18.1-35.9 jigml-' | t1/2 in mouse plasma [4]: 51 min | Tumour growth delay (MAC 26 tumours; 25 mg kg-1 ip): 0 days | Tumour growth delay (MAC 26 tumours; 50 mg kg-1 ip): 0.8 days | Tumour growth delay (MAC 26 tumours; 100 mg kg-1 ip): 0.8 days | Survivors (MAC 26 tumours; 25 mg kg-1 ip): 10/10 | Survivors (MAC 26 tumours; 50 mg kg-1 ip): 10/10 | Survivors (MAC 26 tumours; 100 mg kg-1 ip): 10/10 | Survivors (MAC 26 tumours; 150 mg kg-1 ip): 0/10 | Survivors (MAC 26 tumours; 200 mg kg-1 ip): 0/10 | Survival fraction (bone marrow; 25 mg kg-1 ip): 0.80 | Survival fraction (bone marrow; 50 mg kg-1 ip): 0.59 | Survival fraction (bone marrow; 100 mg kg-1 ip, colonies observed vs expected): 0.20 and 0.16 | reduction in colony forming units (bone marrow; maximum tolerated dose of 100 mg kg-1 ip): 5 fold | IC50 (HCT-18; MTT, 4 days, n = 4): > 100 igm9l-' | c x t (concentration-time product) (HCT-18; [5]): > 528 fig h ml- ' | IC50 (DLD-1; MTT, 4 days, n = 4): > 100 igm9l-' | c x t (concentration-time product) (DLD-1; [5]): > 528 fig h ml- ' | c x t (concentration-time product) (K562): 207 fig h ml- ' | c x t (concentration-time product) (HCLO): 146 fig h ml- ' | IC50 (HRT-18; MTT, 4 days, n = 4): > 100 igm9l-' | c x t (concentration-time product) (HRT-18; [5]): > 528 fig h ml- ' | IC50 (HT-29; MTT, 4 days, n = 4): > 100 igm9l-' | c x t (concentration-time product) (HT-29; [5]): > 528 fig h ml- ' | IC50 (MAC 26; MTT, 4 days, one experiment only): 35 igm9l-' | c x t (concentration-time product) (MAC 26; [5]): 185 fig h ml- ' | c x t (concentration-time product) (WEHI-3B): 150 fig h ml- ' | c x t (concentration-time product) (MAC 16): 177 fig h ml- ' | c x t (concentration-time product) (MAC 15A): 54 fig h ml- ' | Activity against P388 leukaemia in vivo (in words) (P388 leukaemia): highly effective | T/C% (MAC 15A ascites tumour; 12.5 mg kg-1 ip): 88% | T/C% (MAC 15A ascites tumour; 12.5 mg kg-1 iv): 100% | T/C% (MAC 15A ascites tumour; 25 mg kg-1 ip): 138% | T/C% (MAC 15A ascites tumour; 25 mg kg-1 iv): 100% | T/C% (MAC 15A ascites tumour; 50 mg kg-1 ip): 163% | T/C% (MAC 15A ascites tumour; 50 mg kg-1 iv): 125% | T/C% (MAC 15A ascites tumour; 100 mg kg-1 ip, median survival time treated/control): 133% and 163%
